# Laboratory results published in publication PMC9092470, “Understanding p300-transcription factor interactions using sequence variation and hybridization†” (RSC Chemical Biology, 2022).
# B1: HIF-1α786-826 (expressed, His10-GFP cleaved off) (peptide)
# peptide: GPGSSMDESGLPQLTSYDCEVNAPIQGSRNLLQGEELLRALDQVN
# notes: four residues (Gly-Pro-Gly-Ser) left from the PreScission protease site; source: E. coli Rosetta 2, from inclusion bodies, His-trap, on-column PreScission cleavage, RP-HPLC; not shown: GFP, N-terminal, cleaved
# Experiments:
# [1] = molecular target: T1, p300 (CH1 domain, residues 330–420) (Homo sapiens, UniProt Q09472); experiment: ITC of chemically synthesized HIF-1α, CITED2 and CITIF peptides binding to p300; conditions: ITC, 35 °C, 40 mM sodium phosphate, pH 7.5, 100 mM NaCl, 1 mM DTT, 5 μM protein in cell, 60 μM ligand in syringe
# T1 construct: GST (N, cleaved yes); made in house; host or cells: E. coli BL21 pLysS (pGEX-4T1-p300)
# T1 sequence (Q09472 330-420): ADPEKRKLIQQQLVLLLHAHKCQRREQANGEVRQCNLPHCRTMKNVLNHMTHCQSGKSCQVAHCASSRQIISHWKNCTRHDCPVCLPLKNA
# Method: Raw ITC (upper) data and fitted thermogram (lower) (40 mM sodium phosphate, pH 7.5 100 mM NaCl, 1 mM DTT buffer using 5 μM protein in the cell and 60 μM ligand in the syringe at 35 °C) error bars represent the estimated integration errors; (b) Thermodynamic signatures for each interaction.
# Figure S8 (a) Sequences of the truncated CITED2 peptides and isothermal titration […]
# µM peptide in the syringe. All measurements were carried out 40 mM sodium phosphate, pH 7.5 100 mM NaCl, 1 mM DTT buffer at 35°C. Error bars represent the estimated integration […]
# Table S2 Thermodynamic parameters for shortened CITED2 sequences. 68% confidence intervals for the fitting are shown in brackets. Data fitted to a single binding site model, fixed 1:1 stoichiometry with incompetent protein fraction as an adjustable parameter. […]
# (§1) Isothermal titration calorimetry
# (§2) Prior to ITC measurement p300 CH1 was dialysed or run on S75 column in the buffer used for titration, and the same buffer was used to dissolve the pure peptides. Experiments with […]
# (§3) MicroCal iTC200 instrument with 10 µM protein in the cell and 100 µM ligand in the syringe at 37°C, using 2 µl injections and 120 or 180 s spacing between injections. Experiments with the […]
# (§4) instrument using 3-5 µM protein in the cell and 40-60 µM ligand in the syringe at 35°C, using 5 µl injections and 180 s spacing between injections, for 40 injections. Titrations were performed in 40 mM Na-phosphate, pH 7.5 100 mM NaCl, 1 mM DTT buffer except for GFP-HIF-1α and variants for which 25 mM Tris-HCl, 150 mM NaCl, 1mM DTT, pH 7.4 buffer was used. Data were analysed using NITPIC3 and fitted using SEDPHAT4 to a single binding site model (fixed 1:1 stoichiometry), with baseline and incompetent protein fraction as adjustable parameters. 68 % confidence intervals for the fitted values were determined using the automatic confidence interval search implemented in SEDPHAT. Figures were prepared using […]
# [2] = molecular target: T1, p300 (CH1 domain, residues 330–420); experiment: ITC of expressed HIF-1α, CITED2 and CITIF peptides binding to p300; conditions: ITC, expressed peptides, conditions as Fig. S6 (40 mM sodium phosphate, pH 7.5, 100 mM NaCl, 1 mM DTT, 35°C)
# Method: We hypothesized that it would be possible to enhance the affinity of HIF-1α for p300 by hybridising key regions of both CITED2 and HIF-1α (see later). We first measured the affinity of the parent peptides. A particular difficulty in comparing these peptide sequences is the different length used in different studies.[28,33,35,36] […]
# data and fitted thermogram (lower) (40 mM sodium phosphate, pH 7.5 100 mM NaCl, 1 mM DTT buffer using 5 µM protein in the cell and 60 µM ligand in the syringe at 35°C); (b) Thermodynamic signatures for each interaction. […]
# as §1, §2, §3, §4
# [3] = molecular target: T2, CITED2216-259 /p300 complex (Homo sapiens, UniProt Q09472); experiment: Competition ITC: HIF-1α776-826 titrated to preformed CITED2216-259/p300 complex; type: binding; conditions: titrated to CITED2216-259/p300 complex
# T2 construct: GST (N, cleaved yes); made in house; host or cells: p300: E. coli BL21 pLysS (pGEX-4T1-p300); CITED2 peptide: chemical synthesis
# T2 sequence (Q09472 330-420, one chain of several): as the sequence (Q09472 330-420) above
# Method: (§5) Figure S7Apparent KD fits for the competition ITC experiment using a competition interaction model. p300/ligand complexes were prepared by titrating the appropriate ligand first to p300 in the cell using 3-5 µM protein concentration, the titration stopped when it reached close to […]
# (§6) (Table S5) Then it was titrated with the competitor ligand using 30-60 µM concentration in the syringe, 5 or 10 uL injections with 180-240 s spacing. Background titrations were performed without p300 in the cell and subtracted from the measurements. Apparent KD,app and ΔH app values data were fitted to a competition model (Fig. S17) in SEDPHAT. Error bars represent the estimated integration errors.
# (1 picture or pasted object on this page, not shown here)
# Table S1 Apparent KD values and thermodynamic parameters for competition ITC experiments derived from fitting the data to a competition model depicted in Fig. S17. confidence intervals of the binding parameters are shown in brackets. […]
# as §1
# Prior to ITC measurement p300 CH1 was dialysed or run on S75 column in the buffer used for titration, and the same buffer was used to dissolve the pure peptides. […]
# 37°C, using 2 µl injections and 120 or 180 s spacing between injections. Experiments with the […]
# as §4
# Competition ITC measurements
# Competition ITC measurements were performed in Microcal VP ITC. […]
# p300 = molecular target: T3, p300 (Homo sapiens, UniProt Q09472); experiment: Global fitting of ITC titrations with ternary complex model: binary binding parameters
# T3 construct: GST (N, cleaved yes); made in house; host or cells: E. coli BL21 pLysS (pGEX-4T1-p300)
# T3 sequence (Q09472 330-420): as above
# [4] = molecular target: T4, HIF-1α786-826/p300 complex (Homo sapiens, UniProt Q09472); experiment: Competition ITC: CITED2 peptide titrated to preformed p300/HIF-1α786–826 complex; type: binding; conditions: titrated to HIF-1α786-826/p300 complex, fitted with fixed KD = 42.9 nM and ΔH = -25.8 kcal/mol for HIF-1α786-826, read-out: KD,app CITED2
# T4 construct: GST (N, cleaved yes); made in house; host or cells: p300: E. coli BL21 pLysS (pGEX-4T1-p300); HIF-1α peptide: chemical synthesis
# T4 sequence (Q09472 330-420, one chain of several): as the sequence (Q09472 330-420) above
# Method: as §5, §6
# (1 picture or pasted object on this page, not shown here) […]
# as §4, with “Titrations were performed in 40 mM Na-phosphate, pH 7.5 100 mM NaCl, 1 mM DTT buffer except for GFP-HIF-1α and variants for which 25 mM Tris-HCl, 150 mM NaCl, 1mM DTT, pH 7.4 buffer was used.” left out, “SEDPHAT.” for “SEDPHAT. Figures were prepared using”
# p300 CH1 (Homo sapiens) = p300 CH1 (Homo sapiens) (UniProt Q09472); experiment: anisotropy; conditions: cited from earlier work
# [5] = molecular target: GST-tagged p300 CH1 domain (residues 330–420) (UniProt Q09472); experiment: SEC; size exclusion chromatography of the GST fusion (protein characterization, Fig. S15)
# [6] = molecular target: T5, p300 CH1 domain (residues 330–420) (UniProt Q09472 330-420); experiment: ITC; peptide in the syringe, p300 in the cell (Fig. 4: 5 μM protein, 60 μM ligand); 40 mM sodium phosphate, pH 7.5, 100 mM NaCl, 1 mM DTT, 35 °C; single-site model, fixed 1:1 stoichiometry; conditions: both partners purified
# T5 construct: p300 CH1 domain, residues 330–420; The cleavage of GST is said for the anisotropy control; also called p300 with the GST tag cleaved; source: recombinantly expressed as a fusion protein with GST, GST tag cleaved
# T5 sequence (Q09472 330-420): as above
# [7] = molecular target: T5, p300 CH1 domain (residues 330–420); experiment: ITC; competition: CITED2 peptides titrated into the preformed p300/HIF-1α 776–826 complex (1.2–1.6 equivalents of HIF-1α); 40 mM sodium phosphate, pH 7.5, 100 mM NaCl, 1 mM DTT, 35 °C; competitive binding model; apparent; conditions: both partners purified
# [8] = molecular target: T6, GST-p300 (GST-tagged p300 CH1 domain, residues 330-420) (human, UniProt Q09472 330-420); experiment: fluorescence polarisation; fluorescence anisotropy competition; 5 nM FAM-HIF786-826 as tracer, two-fold dilution series of the competitor from 10 µM over 24 points; 25 mM Tris-HCl, 150 mM NaCl, 1 mM DTT, pH 7.4; concentration of p300 not stated; conditions: both partners purified
# T6 construct: human p300, CH1 domain (zinc finger, TAZ type 1), residues 330-420; For the fluorescence anisotropy experiments the GST cleavage step was omitted (D1:p17); source: E. coli (pGEX-6P-2 in Rosetta 2 or pGEX-4T-1 in BL21 pLysS), glutathione beads, eluted with glutathione, SEC
# T6 sequence (Q09472 330-420): as above
# [9] = 68% confidence interval in brackets
# [10] = global fit 1 (CITED224-259 and HIF776-826 titrations)
# [11] = global fit 2 (CITED216-269 and HIF776-826 titrations)
# [12] = global fit 3 (CITED2216-248 and HIF776-826 titrations)
molecule,measurement,setting,value
CC[C@H](C)[C@H](NC(=O)[C@@H]1CCCN1C(=O)[C@H](C)NC(=O)[C@H](CC(N)=O)NC(=O)[C@@H](NC(=O)[C@H](CCC(=O)O)NC(=O)[C@H](CS)NC(=O)[C@H](CC(=O)O)NC(=O)[C@H](Cc1ccc(O)cc1)NC(=O)[C@H](CO)NC(=O)[C@@H](NC(=O)[C@H](CC(C)C)NC(=O)[C@H](CCC(N)=O)NC(=O)[C@@H]1CCCN1C(=O)[C@H](CC(C)C)NC(=O)CNC(=O)[C@H](CO)NC(=O)[C@H](CCC(=O)O)NC(=O)[C@H](CC(=O)O)NC(=O)[C@H](CCSC)NC(=O)[C@H](CO)NC(=O)[C@H](CCC(N)=O)NC(=O)CNC(=O)[C@H](CC(C)C)NC(=O)[C@H](CC(C)C)NC(=O)[C@H](CCCNC(=N)N)NC(=O)[C@H](CS)NC(=O)[C@H](C)NC(=O)[C@H](CC(C)C)NC(=O)[C@H](CC(=O)O)NC(=O)[C@H](CO)NC(=O)[C@H](CO)NC(=O)CNC(=O)[C@@H]1CCCN1C(=O)CN)[C@@H](C)O)C(C)C)C(=O)N[C@@H](CCC(N)=O)C(=O)NCC(=O)N[C@@H](CO)C(=O)N[C@@H](CCCNC(=N)N)C(=O)N[C@@H](CC(N)=O)C(=O)N[C@@H](CC(C)C)C(=O)N[C@@H](CC(C)C)C(=O)N[C@@H](CCC(N)=O)C(=O)NCC(=O)N[C@@H](CCC(=O)O)C(=O)N[C@@H](CCC(=O)O)C(=O)N[C@@H](CC(C)C)C(=O)N[C@@H](CC(C)C)C(=O)N[C@@H](CCCNC(=N)N)C(=O)N[C@@H](C)C(=O)N[C@@H](CC(C)C)C(=O)N[C@@H](CC(=O)O)C(=O)N[C@@H](CCC(N)=O)C(=O)N[C@H](C(=O)N[C@@H](CC(N)=O)C(=O)O)C(C)C [HIF-1α776–826],"ΔS, synthetic peptides",[1],−41 cal mol^−1 K^−1
same,"ΔH, synthetic peptides",[1]; [9],-22.9 kcal/mol
same,"ΔS, expressed peptides",[2],−39.2 cal mol^−1 K^−1
same,"ΔH, expressed peptides",[2]; [9],-22.2 kcal/mol
same,Kd,"[3]; fixed KD = 26.3 nM for CITED2, treat with caution, small heat change, read-out: KD,app HIF-1α",695 nM
same,"ΔHapp, HIF-1α",[3]; treat with caution,-26.37 kcal/mol
same,"ΔSapp, HIF-1α",[3]; treat with caution,-57.4 cal/mol/K
same,ΔH,p300; [10],-22.7 kcal/mol
same,ΔS,p300; [10],-40.3 cal mol-1 K-1
same,ΔH,p300; [11],-22.9 kcal/mol
same,ΔS,p300; [11],-41.1 cal mol-1 K-1
same,ΔH,p300; [12],-27.8 kcal/mol
same,ΔS,p300; [12],-57.4 cal mol-1 K-1
Ac-DEEVLMSLVIEMGLDRIKELPELWLGQNEFDFMTDF-NH2 [CITED2_224–259],Kd,[4],8.4 nM
CITED2 216-269 (from UniProt Q99967),Kd,p300 CH1 (Homo sapiens),10 nM
GST-tagged p300 CH1 domain (residues 330–420) (from UniProt Q09472 330-420) (domain or fragment),stoichiometry N,[5],2
HIF-1α 776-826 (from UniProt Q16665),Kd,p300 CH1 (Homo sapiens),10 nM
"NVIDTDFIDEEVLMSLVIEMGLDRIKELPELWL (peptide, UniProt Q99967 216-248, looked up) [CITED2 216–248 (C-terminally truncated CITED2)]",Kd,[6],303 nM
same,"KD,app (competition against the preformed p300/HIF-1α 776–826 complex)",[7],46.9 nM
"DEEVLMSLVIEMGLDRIKELPELWL (peptide, UniProt Q99967 224-248, looked up) [CITED2 224–248 (truncated CITED2)]",Kd,[6],10400 nM
B1,IC50,[8],59 ± 6 nM
